Reference: patent US6706740B2, “Fungicidal heterocyclic aromatic amides and their compositions, methods of use and preparation” (Dow AgroSciences LLC, priority 1999, dated 2004)

The molecules below were run on Mycosphaerella graminicola (Septoria tritici—SEPTTR) (assay: In vitro fungal growth inhibition, Mycosphaerella graminicola (SEPTTR)). Conditions: Zymoseptoria tritici; 25 ppm in growth medium; read-out: SEPTTR in vitro Growth Inhibition.
Assay type: cell-based

Row | SMILES | inhibition at 25 ppm [%]
1 | COc1ccnc(C(=O)Nc2ccc(C(=O)Oc3ccc(C(F)(F)F)cc3)cc2)c1O [Compound 452] | < 80
2 | CCCCC1(C)CC(NC(=O)c2nccc(OC)c2O)CC(C)(C)C1 (centres unmarked) [Compound 253] | > 80
3 | C=C(C)C(=O)O[C@H]1[C@H](C)OC(=O)[C@@H](NC(=O)c2nccc(OC)c2O)COC(=O)[C@@H]1Cc1ccccc1 [Compound 386] | > 80
4 | COc1ccnc(C(=O)N[C@H]2COC(=O)[C@H](Cc3ccccc3)[C@@H](OC(=O)NC(C)(C)C)[C@H](C)OC2=O)c1O [Compound 400] | < 80

These molecules were tested on Rhizoctonia solani (RHIZSO) (assay: microbe, parasite or virus in culture). Conditions: Rhizoctonia solani, read-out: RHIZSO in vitro Growth Inhibition.
Assay type: cell-based

Row | SMILES | inhibition at 25 ppm [%]
5 | COc1ccnc(C(=O)Nc2ccc(C(=O)Oc3ccc(C(F)(F)F)cc3)cc2)c1O [Compound 452] | < 80
6 | CCCCC1(C)CC(NC(=O)c2nccc(OC)c2O)CC(C)(C)C1 (centres unmarked) [Compound 253] | < 80
7 | C=C(C)C(=O)O[C@H]1[C@H](C)OC(=O)[C@@H](NC(=O)c2nccc(OC)c2O)COC(=O)[C@@H]1Cc1ccccc1 [Compound 386] | < 80
8 | COc1ccnc(C(=O)N[C@H]2COC(=O)[C@H](Cc3ccccc3)[C@@H](OC(=O)NC(C)(C)C)[C@H](C)OC2=O)c1O [Compound 400] | < 80

These molecules were tested on Phytophthora infestans (PHYTIN) (assay: microbe, parasite or virus in culture). Conditions: Phytophthora infestans, read-out: PHYTIN in vitro Growth Inhibition.
Assay type: cell-based

Row | SMILES | inhibition at 25 ppm [%]
9 | COc1ccnc(C(=O)Nc2ccc(C(=O)Oc3ccc(C(F)(F)F)cc3)cc2)c1O [Compound 452] | < 80
10 | CCCCC1(C)CC(NC(=O)c2nccc(OC)c2O)CC(C)(C)C1 (centres unmarked) [Compound 253] | > 80
11 | C=C(C)C(=O)O[C@H]1[C@H](C)OC(=O)[C@@H](NC(=O)c2nccc(OC)c2O)COC(=O)[C@@H]1Cc1ccccc1 [Compound 386] | < 80
12 | COc1ccnc(C(=O)N[C@H]2COC(=O)[C@H](Cc3ccccc3)[C@@H](OC(=O)NC(C)(C)C)[C@H](C)OC2=O)c1O [Compound 400] | < 80

These molecules were tested on Leptosphaeria nodorum—LEPTNO (assay: Glume Blotch of Wheat, in vivo whole plant, 24 Hour Protectant). Conditions: 100 ppm spray, wheat, 24 hour protectant; control of fungal infection vs untreated plants.

Row | SMILES | LEPTNO in vivo 1 Day Protectant
13 | C=C(C)C(=O)O[C@H]1[C@H](C)OC(=O)[C@@H](NC(=O)c2nccc(OC)c2O)COC(=O)[C@@H]1Cc1ccccc1 [Compound 386] | + +
14 | COc1ccnc(C(=O)N[C@H]2COC(=O)[C@H](Cc3ccccc3)[C@@H](OC(=O)NC(C)(C)C)[C@H](C)OC2=O)c1O [Compound 400] | + +

Same assay, conditions: Leptosphaeria; 100 ppm spray, 24 hour protectant, wheat; control of fungal infection vs untreated plants; read-out: LEPTNO in vivo 1 Day Protectant

Row | SMILES | pest or weed control at 100 ppm [%]
15 | CCCCC1(C)CC(NC(=O)c2nccc(OC)c2O)CC(C)(C)C1 (centres unmarked) [Compound 253] | 25 to 74

Same assay, conditions: Leptosphaeria; 100 ppm spray, wheat, 24 hour protectant; control of fungal infection vs untreated plants; read-out: LEPTNO in vivo 1 Day Protectant

Row | SMILES | pest or weed control at 100 ppm [%]
16 | COc1ccnc(C(=O)Nc2ccc(C(=O)Oc3ccc(C(F)(F)F)cc3)cc2)c1O [Compound 452] | 25 to 74

The molecules below were run on Stagonospora nodorum (Leptosphaeria nodorum—LEPTNO) (assay: In vitro fungal growth inhibition, Stagonospora nodorum (LEPTNO)). Conditions: Leptosphaeria; 25 ppm in growth medium; read-out: LEPTNO in vitro Growth Inhibition.
Assay type: cell-based

Row | SMILES | inhibition at 25 ppm [%]
17 | COc1ccnc(C(=O)Nc2ccc(C(=O)Oc3ccc(C(F)(F)F)cc3)cc2)c1O [Compound 452] | < 80
18 | CCCCC1(C)CC(NC(=O)c2nccc(OC)c2O)CC(C)(C)C1 (centres unmarked) [Compound 253] | > 80
19 | C=C(C)C(=O)O[C@H]1[C@H](C)OC(=O)[C@@H](NC(=O)c2nccc(OC)c2O)COC(=O)[C@@H]1Cc1ccccc1 [Compound 386] | > 80
20 | COc1ccnc(C(=O)N[C@H]2COC(=O)[C@H](Cc3ccccc3)[C@@H](OC(=O)NC(C)(C)C)[C@H](C)OC2=O)c1O [Compound 400] | < 80

Each molecule was assayed on Septoria tritici—SEPTTR (assay: Leaf Blotch of Wheat, in vivo whole plant, 24 Hour Protectant). Conditions: Zymoseptoria tritici, 24 h, 100 ppm spray, 24 hour protectant, wheat; control of fungal infection vs untreated plants; read-out: SEPTTR in vivo 1 Day Protectant.

Row | SMILES | pest or weed control at 100 ppm [%]
21 | CCCCC1(C)CC(NC(=O)c2nccc(OC)c2O)CC(C)(C)C1 (centres unmarked) [Compound 253] | 25 to 74

Same assay, conditions: Zymoseptoria tritici, 24 h, 100 ppm spray, wheat, 24 hour protectant; control of fungal infection vs untreated plants; read-out: SEPTTR in vivo 1 Day Protectant

Row | SMILES | pest or weed control at 100 ppm [%]
22 | COc1ccnc(C(=O)Nc2ccc(C(=O)Oc3ccc(C(F)(F)F)cc3)cc2)c1O [Compound 452] | 25 to 74
23 | C=C(C)C(=O)O[C@H]1[C@H](C)OC(=O)[C@@H](NC(=O)c2nccc(OC)c2O)COC(=O)[C@@H]1Cc1ccccc1 [Compound 386] | 25 to 74
24 | COc1ccnc(C(=O)N[C@H]2COC(=O)[C@H](Cc3ccccc3)[C@@H](OC(=O)NC(C)(C)C)[C@H](C)OC2=O)c1O [Compound 400] | 25 to 74

The molecules below were run on Ustilago maydis (USTIMA) (assay: microbe, parasite or virus in culture). Conditions: Mycosarcoma maydis, read-out: USTIMA in vitro Growth Inhibition.
Assay type: cell-based

Row | SMILES | inhibition at 25 ppm [%]
25 | COc1ccnc(C(=O)Nc2ccc(C(=O)Oc3ccc(C(F)(F)F)cc3)cc2)c1O [Compound 452] | < 80
26 | CCCCC1(C)CC(NC(=O)c2nccc(OC)c2O)CC(C)(C)C1 (centres unmarked) [Compound 253] | < 80
27 | C=C(C)C(=O)O[C@H]1[C@H](C)OC(=O)[C@@H](NC(=O)c2nccc(OC)c2O)COC(=O)[C@@H]1Cc1ccccc1 [Compound 386] | < 80
28 | COc1ccnc(C(=O)N[C@H]2COC(=O)[C@H](Cc3ccccc3)[C@@H](OC(=O)NC(C)(C)C)[C@H](C)OC2=O)c1O [Compound 400] | < 80

What follows are molecules tested on Puccinia recondita—PUCCRT (assay: Brown Rust of Wheat, in vivo whole plant, 24 Hour Protectant). Conditions: Puccinia; 100 ppm spray, 24 hour protectant, wheat; control of fungal infection vs untreated plants; read-out: PUCCRT in vivo 1 Day Protectant.

Row | SMILES | pest or weed control at 100 ppm [%]
29 | CCCCC1(C)CC(NC(=O)c2nccc(OC)c2O)CC(C)(C)C1 (centres unmarked) [Compound 253] | 25 to 74

Same assay, conditions: Puccinia; 100 ppm spray, wheat, 24 hour protectant; control of fungal infection vs untreated plants; read-out: PUCCRT in vivo 1 Day Protectant

Row | SMILES | pest or weed control at 100 ppm [%]
30 | COc1ccnc(C(=O)Nc2ccc(C(=O)Oc3ccc(C(F)(F)F)cc3)cc2)c1O [Compound 452] | < 25
31 | C=C(C)C(=O)O[C@H]1[C@H](C)OC(=O)[C@@H](NC(=O)c2nccc(OC)c2O)COC(=O)[C@@H]1Cc1ccccc1 [Compound 386] | 25 to 74
32 | COc1ccnc(C(=O)N[C@H]2COC(=O)[C@H](Cc3ccccc3)[C@@H](OC(=O)NC(C)(C)C)[C@H](C)OC2=O)c1O [Compound 400] | 25 to 74

These molecules were tested on Magnaporthe grisea (Pyricularia oryzae—PYRIOR) (assay: microbe, parasite or virus in culture). Conditions: Pyricularia oryzae, read-out: PYRIOR in vitro Growth Inhibition.
Assay type: cell-based

Row | SMILES | inhibition at 25 ppm [%]
33 | COc1ccnc(C(=O)Nc2ccc(C(=O)Oc3ccc(C(F)(F)F)cc3)cc2)c1O [Compound 452] | < 80
34 | CCCCC1(C)CC(NC(=O)c2nccc(OC)c2O)CC(C)(C)C1 (centres unmarked) [Compound 253] | > 80
35 | C=C(C)C(=O)O[C@H]1[C@H](C)OC(=O)[C@@H](NC(=O)c2nccc(OC)c2O)COC(=O)[C@@H]1Cc1ccccc1 [Compound 386] | < 80
36 | COc1ccnc(C(=O)N[C@H]2COC(=O)[C@H](Cc3ccccc3)[C@@H](OC(=O)NC(C)(C)C)[C@H](C)OC2=O)c1O [Compound 400] | > 80

The molecules below were run on Phytophthora infestans—PHYTIN (assay: whole plant or invertebrate). Conditions: Phytophthora, in Solanum lycopersicum, 24 h, read-out: PHYTIN in vivo 1 Day Protectant.
Assay type: in vivo

Row | SMILES | pest or weed control at 100 ppm [%]
37 | COc1ccnc(C(=O)Nc2ccc(C(=O)Oc3ccc(C(F)(F)F)cc3)cc2)c1O [Compound 452] | < 25
38 | CCCCC1(C)CC(NC(=O)c2nccc(OC)c2O)CC(C)(C)C1 (centres unmarked) [Compound 253] | < 25
39 | C=C(C)C(=O)O[C@H]1[C@H](C)OC(=O)[C@@H](NC(=O)c2nccc(OC)c2O)COC(=O)[C@@H]1Cc1ccccc1 [Compound 386] | < 25
40 | COc1ccnc(C(=O)N[C@H]2COC(=O)[C@H](Cc3ccccc3)[C@@H](OC(=O)NC(C)(C)C)[C@H](C)OC2=O)c1O [Compound 400] | < 25

Each molecule was assayed on Erysiphe graminis—ERYSGT (assay: Powdery Mildew of Wheat, in vivo whole plant, 24 Hour Protectant). Conditions: Erysiphe; 100 ppm spray, 24 hour protectant, wheat; control of fungal infection vs untreated plants; read-out: ERYSGT in vivo 1 Day Protectant.

Row | SMILES | pest or weed control at 100 ppm [%]
41 | CCCCC1(C)CC(NC(=O)c2nccc(OC)c2O)CC(C)(C)C1 (centres unmarked) [Compound 253] | < 25

Same assay, conditions: Erysiphe; 100 ppm spray, wheat, 24 hour protectant; control of fungal infection vs untreated plants; read-out: ERYSGT in vivo 1 Day Protectant

Row | SMILES | pest or weed control at 100 ppm [%]
42 | COc1ccnc(C(=O)Nc2ccc(C(=O)Oc3ccc(C(F)(F)F)cc3)cc2)c1O [Compound 452] | < 25
43 | C=C(C)C(=O)O[C@H]1[C@H](C)OC(=O)[C@@H](NC(=O)c2nccc(OC)c2O)COC(=O)[C@@H]1Cc1ccccc1 [Compound 386] | 25 to 74
44 | COc1ccnc(C(=O)N[C@H]2COC(=O)[C@H](Cc3ccccc3)[C@@H](OC(=O)NC(C)(C)C)[C@H](C)OC2=O)c1O [Compound 400] | 25 to 74
